pIC50: −log10 of the molar value.
Target: T1, human neutrophil elastase (HNE) (Homo sapiens, UniProt P08246)
T1 construct: purchased Sigma E8140
T1 sequence (P08246 30-267): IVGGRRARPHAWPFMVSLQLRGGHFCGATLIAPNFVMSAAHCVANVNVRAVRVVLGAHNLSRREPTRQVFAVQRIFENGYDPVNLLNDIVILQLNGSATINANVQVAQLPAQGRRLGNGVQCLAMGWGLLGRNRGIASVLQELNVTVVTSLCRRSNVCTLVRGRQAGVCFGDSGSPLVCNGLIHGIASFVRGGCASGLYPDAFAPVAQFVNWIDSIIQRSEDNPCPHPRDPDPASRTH
Test: HNE enzyme assay (fluorogenic peptide substrate MeOSuc-Ala-Ala-Pro-Val-AMC)
Type: biochemical
Conditions: human leukocyte elastase, substrate 100 μM, 25° C., 30 minutes, at least two separate experiments; read-out: HNE inhibition (IC50 values)
Procedure: Compounds of this invention were tested for potency in a human neutrophil elastase (HNE) enzyme activity assay.
Assays were performed in 96-well plates in a total assay volume of 100 μl. The final concentration of elastase enzyme (human leukocyte elastase, Sigma E8140) was 0.0036 units/well […]. The peptide substrate (MeOSuc-Ala-Ala-Pro-Val-AMC, Calbiochem #324740) was used at a final concentration of 100 μM. The final concentration of DMSO was 1% in the assay buffer (0.05M Tris.HCl, 0.1M NaCl, 0.1M CaCl2, 0.0005% brij-35, pH 7.5). The enzymatic reaction was started by addition of the enzyme and incubated at 25° C. for 30 minutes. After incubation, the reaction was stopped by addition of soybean trypsin inhibitor (Sigma T9003) at a final concentration of 50 μg/well. Fluorescence was measured using a Molecular Devices fluorescence plate reader using 380 nm excitation and 460 nm emission wavelengths.
A dose response to each compound was performed, and the effect of the compound in each experiment was expressed as a percentage inhibition of the control enzyme fluorescence. Dose response curves were plotted and compound potency (IC50) was determined. Compounds were tested in at least two separate experiments.

pIC50, > 7.70:
COC(=O)C1=C(C)N(c2cccc(C(F)(F)F)c2)c2nn(CC(=O)N(C)CCN(C)C)c(=O)n2C1c1ccc(C#N)cc1 (stereo not drawn) [Example 25, 5-(4-Cyano-phenyl)-2-{[(2-dimethylamino-ethyl)-methyl-carbamoyl]-methyl}-7-methyl-3-oxo-8-(3-trifluoromethyl-phenyl)-2,3,5,8-tetrahydro-[1,2,4]triazolo[4,3-a]pyrimidine-6-carboxylic acid methyl ester]
COC(=O)C1=C(C)N(c2cccc(C(F)(F)F)c2)c2nn(CC(=O)N(C)CCCN(C)C)c(=O)n2C1c1ccc(C#N)cc1 (stereo not drawn) [Example 26, 5-(4-Cyano-phenyl)-2-{[(3-dimethylamino-propyl)-methyl-carbamoyl]-methyl}-7-methyl-3-oxo-8-(3-trifluoromethyl-phenyl)-2,3,5,8-tetrahydro-[1,2,4]triazolo[4,3-a]pyrimidine-6-carboxylic acid methyl ester]
COC(=O)C1=C(C)N(c2cccc(C(F)(F)F)c2)c2nn(CC(=O)N(C)CC[N+](C)(C)C)c(=O)n2C1c1ccc(C#N)cc1 (stereo not drawn) [Example 27, [2-({2-[5-(4-Cyano-phenyl)-6-methoxycarbonyl-7-methyl-3-oxo-8-(3-trifluoromethyl-phenyl)-5,8-dihydro-[1,2,4]triazolo[4,3-a]pyrimidin-2-yl]-acetyl}-methyl-amino)-ethyl]trimethyl-ammonium bromide]
COC(=O)C1=C(C)N(c2cccc(C(F)(F)F)c2)c2nn(CC(=O)N(C)CCC[N+](C)(C)C)c(=O)n2C1c1ccc(C#N)cc1 (stereo not drawn) [Example 28, [3-({2-[5-(4-Cyano-phenyl)-6-methoxycarbonyl-7-methyl-3-oxo-8-(3-trifluoromethyl-phenyl)-5,8-dihydro-[1,2,4]triazolo[4,3-a]pyrimidin-2-yl]-acetyl}-methyl-amino)propyl]-trimethyl-ammonium; bromide]
COC(=O)C1=C(C)N(c2cccc(C(F)(F)F)c2)c2nn(CC(=O)N(C)CCCCN(C)C)c(=O)n2C1c1ccc(C#N)cc1 (stereo not drawn) [Example 29, 5-(4-Cyano-phenyl)-2-{[(4-dimethylamino-butyl)-methyl-carbamoyl]-methyl}-7-methyl-3-oxo-8-(3-trifluoromethyl-phenyl)-2,3,5,8-tetrahydro-[1,2,4]triazolo[4,3-a]pyrimidine-6-carboxylic acid methyl ester]
COC(=O)C1=C(C)N(c2cccc(C(F)(F)F)c2)c2nn(CC(=O)N(C)CCCCCN(C)C)c(=O)n2C1c1ccc(C#N)cc1 (stereo not drawn) [Example 30, 5-(4-Cyano-phenyl)-2-{[(5-dimethylamino-pentyl)-methyl-carbamoyl]-methyl}-7-methyl-3-oxo-8-(3-trifluoromethyl-phenyl)-2,3,5,8-tetrahydro-[1,2,4]triazolo[4,3-a]pyrimidine-6-carboxylic acid methyl ester]
COC(=O)C1=C(C)N(c2cccc(C(F)(F)F)c2)c2nn(CC(=O)N(C)CCCC[N+](C)(C)C)c(=O)n2C1c1ccc(C#N)cc1 (stereo not drawn) [Example 31, [4-({2-[5-(4-Cyano-phenyl)-6-methoxycarbonyl-7-methyl-3-oxo-8-(3-trifluoromethyl-phenyl)-5,8-dihydro-[1,2,4]triazolo[4,3-a]pyrimidin-2-yl]-acetyl}-methyl-amino)-butyl]-trimethylammonium bromide]
COC(=O)C1=C(C)N(c2cccc(C(F)(F)F)c2)c2nn(CC(=O)N(C)CCCCC[N+](C)(C)C)c(=O)n2C1c1ccc(C#N)cc1 (stereo not drawn) [Example 32, [5-({2-[5-(4-Cyano-phenyl)-6-methoxycarbonyl-7-methyl-3-oxo-8-(3-trifluoromethyl-phenyl)-5,8-dihydro-[1,2,4]triazolo[4,3-a]pyrimidin-2-yl]-acetyl}-methyl-amino)pentyl]-trimethyl-ammonium; bromide]
COC(=O)C1=C(C)N(c2cccc(C(F)(F)F)c2)c2nn(CC(=O)N(C)CCCCCN(C)C)c(=O)n2[C@@H]1c1ccc(C#N)cc1 [Example 33, (R)-5-(4-Cyano-phenyl)-2-{[(5-dimethylamino-pentyl)-methyl-carbamoyl]-methyl}-7-methyl-3-oxo-8-(3-trifluoromethyl-phenyl)-2,3,5,8-tetrahydro-[1,2,4]triazolo[4,3-a]pyrimidine-6-carboxylic acid methyl ester]
COC(=O)C1=C(C)N(c2cccc(C(F)(F)F)c2)c2nn(CC(=O)N(C)CCCCC[N+](C)(C)C)c(=O)n2[C@@H]1c1ccc(C#N)cc1 [Example 34, (R)-[5-({2-[5-(4-Cyano-phenyl)-6-methoxycarbonyl-7-methyl-3-oxo-8-(3-trifluoromethyl-phenyl)-5,8-dihydro-[1,2,4]triazolo[4,3-a]pyrimidin-2-yl]-acetyl}-methyl-amino)pentyl]-trimethyl-ammonium chloride]
COC(=O)C1=C(C)N(c2cccc(C(F)(F)F)c2)c2nn(CCCN(C)C(C)=O)c(=O)n2C1c1ccc(C#N)cc1 (stereo not drawn) [Example 35, 2-[3-(Acetyl-methyl-amino)-propyl]-5-(4-cyano-phenyl)-7-methyl-3-oxo-8-(3-trifluoromethylphenyl)-2,3,5,8-tetrahydro-[1,2,4]triazolo[4,3-a]pyrimidine-6-carboxylic acidmethyl ester]
COC(=O)C1=C(C)N(c2cccc(C(F)(F)F)c2)c2nn(CCCN(C)S(C)(=O)=O)c(=O)n2C1c1ccc(C#N)cc1 (stereo not drawn) [Example 36, 5-(4-Cyano-phenyl)-2-[3-(methanesulfonyl-methyl-amino)-propyl]-7-methyl-3-oxo-8-(3-trifluoromethyl-phenyl)-2,3,5,8-tetrahydro-[1,2,4]triazolo[4,3-a]pyrimidine-6-carboxylic acidmethyl ester]
COC(=O)C1=C(C)N(c2cccc(C(F)(F)F)c2)c2nn(CCCS(=O)(=O)CCC[N+](C)(C)C)c(=O)n2C1c1ccc(C#N)cc1 (stereo not drawn) [Example 37, (3-{3-[5-(4-Cyano-phenyl)-6-methoxycarbonyl-7-methyl-3-oxo-8-(3-trifluoromethyl-phenyl)-5,8-dihydro-[1,2,4]triazolo[4,3-a]pyrimidin-2-yl]-propane-1-sulfonyl}-propyl)-trimethylammonium toluene-4-sulfonate]
COC(=O)C1=C(C)N(c2cccc(C(F)(F)F)c2)c2nn(CCCS(=O)(=O)CCC[N+](C)(C)C)c(=O)n2[C@@H]1c1ccc(C#N)cc1 [Example 38, (R)-(3-{3-[5-(4-Cyano-phenyl)-6-methoxycarbonyl-7-methyl-3-oxo-8-(3-trifluoromethyl-phenyl)-5,8-dihydro-[1,2,4]triazolo[4,3-a]pyrimidin-2-yl]-propane-1-sulfonyl}-propyl)-trimethylammonium chloride]
CC1=C(C#N)C(c2ccc(C#N)cc2)n2c(nn(CCCS(=O)(=O)CCC[N+](C)(C)C)c2=O)N1c1cccc(C(F)(F)F)c1 (stereo not drawn) [Example 39, (3-{3-[6-Cyano-5-(4-cyano-phenyl)-7-methyl-3-oxo-8-(3-trifluoromethyl-phenyl)-5,8-dihydro-[1,2,4]triazolo[4,3-a]pyrimidin-2-yl]-propane-1-sulfonyl}-propyl)-trimethylammonium toluene-4-sulfonate]
